Laboratory results taken from patent US9273003B2, “Methods of treating lymphoma and rheumatoid arthritis with cyclopentyl (2S)-cyclohexyl[({6-[3-(hydroxyamino)-3-oxopropyl]pyridin-3-yl}methyl)amino]acetate” (GlaxoSmithKline Intellectual Property Development Limited, priority 2006, dated 2016).

What was measured:
[1] = biological target: histone deacetylase activity (HeLa nuclear extract); experiment: HDAC fluorescent activity assay (Fluor de Lys, Biomol); format: biochemical; conditions: IC50 allocated to ranges, read-out: HDAC activity
Procedure: The ability of compounds to inhibit histone deacetylase activities was measured using the commercially available HDAC fluorescent activity assay from Biomol. In brief, the Fluor de Lys™ substrate, a lysine with an epsilon-amino acetylation, is incubated with the source of histone deacetylase activity (HeLa nuclear extract) in the presence or absence of inhibitor. Deacetylation of the substrate sensitises the substrate to Fluor de Lys™ developer, which generates a fluorophore. Thus, incubation of the substrate with a source of HDAC activity results in an increase in signal that is diminished in the presence of an HDAC inhibitor.
Data are expressed as a percentage of the control, measured in the absence of inhibitor, with background signal being subtracted from all samples, as follows: % activity=[(S^i−B)/(S^o−B)]×100 where S^i is the signal in the presence of substrate, enzyme and inhibitor, S^o is the signal in the presence of substrate, enzyme and the vehicle in which the inhibitor is dissolved, and B is the background signal measured in the absence of enzyme.
IC50 values were determined by non-linear regression analysis, after fitting the results of eight data points to the equation for sigmoidal dose response with variable slope (% activity against log concentration of Compound), using Graphpad Prism software.
Histone deacetylase activity from crude nuclear extract derived from HeLa cells was used for screening. The preparation, purchased from 4C (Seneffe, Belgium), was prepared from HeLa cells harvested whilst in exponential growth phase. The nuclear extract was prepared according to the methodology described by J. D. Dignam, Nucl. Acid. Res., 1983, 11, 1475-1489, snap frozen in liquid nitrogen and stored at −80° C. The final buffer composition was 20 mM Hepes, 100 mM KCl, 0.2 mM EDTA, 0.5 mM DTT, 0.2 mM PMSF and 20% (v/v) glycerol.

[2] = test system: HUT78 cells; experiment: HUT cell inhibition assay (WST-1 cell viability); format: cell-based; conditions: Homo sapiens; HUT78 cells; IC50 allocated to ranges; read-out: HUT activity
Procedure: (§1) Cancer cell lines (U937 and HUT) growing in log phase were harvested and seeded at 1000-2000 cells/well (100 μl final volume) into 96-well tissue culture plates. Following 24 h of growth cells were treated with Compound. Plates were then re-incubated for a further 72-96 h before a WST-1 cell viability assay was conducted according to the suppliers (Roche Applied Science) instructions.
(§2) Data were expressed as a percentage inhibition of the control, measured in the absence of inhibitor, as follows: % inhibition=100−[(S^i/S^o)×100] where S^i is the signal in the presence of inhibitor and S^o is the signal in the presence of DMSO.
(§3) Dose response curves were generated from 8 concentrations (top final concentration 10 μM, with 3-fold dilutions), using 6 replicates.
(§4) IC50 values were determined by non-linear regression analysis, after fitting the results to the equation for sigmoidal dose response with variable slope (% activity against log concentration of Compound), using Graphpad Prism software.

[3] = test system: U937 cells; experiment: U937 cell inhibition assay (WST-1 cell viability); format: cell-based; conditions: Homo sapiens, U-937; U937 cells; IC50 allocated to ranges; read-out: U937 activity
Procedure: as §1, §2, §3, §4

Compound | IC50 [1] [nM] | IC50 [2] [nM] | IC50 [3] [nM]
CC(C)C[C@@H](NCc1ccc(/C=C/C(=O)NO)cc1)C(=O)O [Example 92] | 101 to 1000 | – | –
O=C(CCc1ccc(CN[C@H](C(=O)O)C2CCCCC2)cn1)NO [Example 103] | < 100 | – | –
CC(C)(C)OC[C@@H](NCc1ccc(/C=C/C(=O)NO)cc1)C(=O)O [Example 94] | 101 to 1000 | – | –
O=C(/C=C/c1ccc(CN[C@@H](C(=O)O)c2ccccc2)cc1)NO [Example 95] | 101 to 1000 | – | –
CC(C)[C@@H]1CC[C@@H](C)C[C@H]1OC(=O)[C@@H](NCc1ccc(CCC(=O)NO)cc1)C1CCCCC1 [Example 46, (1R,2S,5R)-2-Isopropyl-5-methylcyclohexyl (2S)-cyclohexyl({4-[3-(hydroxyamino)-3-oxopropyl]benzyl}amino)acetate] | > 1000 | > 3300 | > 3300
O=C(/C=C/c1ccc(CN[C@H](C(=O)OCc2ccccc2)C2CCCCC2)cc1)NO [Example 24, Benzyl (2S)-cyclohexyl({4-[(1E)-3-(hydroxyamino)-3-oxoprop-1-en-1-yl]benzyl}amino)acetate] | < 100 | < 330 | < 330
O=C(CCc1ccc(CN[C@H](C(=O)OC2CCCC2)c2ccccc2)cn1)NO [Example 65, Cyclopentyl (2S)-[({6-[3-(hydroxyamino)-3-oxopropyl]pyridin-3-yl}methyl)amino](phenyl)acetate] | 101 to 1000 | 331 to 3300 | < 330
O=C(CCc1cccc(CN[C@H](C(=O)OC2CCCC2)c2ccccc2)c1)NO [Example 51, Cyclopentyl (2S)-({3-[3-(hydroxyamino)-3-oxopropyl]benzyl}amino)(phenyl)acetate] | > 1000 | > 3300 | > 3300
O=C(CCc1ccc(CN[C@H](C(=O)O)C2CCCCC2)nc1)NO [Example 104] | 101 to 1000 | – | –
CC(C)C[C@H](NCc1ccc(CCC(=O)NO)cc1)C(=O)O[C@@H]1C[C@H](C)CC[C@H]1C(C)C [Example 45, (1R,2S,5R)-2-Isopropyl-5-methylcyclohexyl N-{4-[3-(hydroxyamino)-3-oxopropyl]benzyl}-L-leucinate] | > 1000 | 331 to 3300 | < 330
O=C(/C=C/c1ccc(CN[C@H](C(=O)OCCN2CCOCC2)C2CCCCC2)cc1)NO [Example 30, 2-Morpholin-4-ylethyl (2S)-cyclohexyl({4-[(1E)-3-(hydroxyamino)-3-oxoprop-1-en-1-yl]benzyl}amino)acetate] | 101 to 1000 | < 330 | < 330
O=C(/C=C/c1ccc(CN2CCC(CN[C@H](C(=O)O)c3ccccc3)CC2)cc1)NO [Example 107] | > 1000 | – | –
CC(N[C@H](C(=O)OC1CCCC1)C1CCCCC1)c1ccc(/C=C/C(=O)NO)cc1 (stereo partly drawn) [Example 84] | > 1000 | > 3300 | > 3300
O=C(/C=C/c1ccc(CN[C@@H](C(=O)OC2CCCC2)c2ccccc2)cc1)NO [Example 22, Cyclopentyl (2R)-({4-[(1E)-3-(hydroxyamino)-3-oxoprop-1-en-1-yl]benzyl}amino)(phenyl)acetate] | 101 to 1000 | 331 to 3300 | 331 to 3300
CC(C)C[C@H](NC(C)c1ccc(/C=C/C(=O)NO)cc1)C(=O)O (stereo partly drawn) [Example 112, N-(1-{4-[(1E)-3-(Hydroxyamino)-3-oxoprop-1-en-1-yl]phenyl}ethyl)-L-leucine] | < 100 | – | –
CC(C)(C)[C@H](NCc1ccc(CCC(=O)NO)cc1)C(=O)O [Example 100] | > 1000 | – | –
CC(C)(C)OC(=O)[C@@H](NCc1ccc(CCC(=O)NO)cc1)C1CCCCC1 [Example 40, tert-Butyl (2S)-cyclohexyl({4-[3-(hydroxyamino)-3-oxopropyl]benzyl}amino)acetate] | < 100 | 331 to 3300 | 331 to 3300
CC[C@H](C)[C@H](NCc1ccc(CCC(=O)NO)cc1)C(=O)OC(C)(C)C [Example 44, tert-Butyl N-{4-[3-(hydroxyamino)-3-oxopropyl]benzyl}isoleucinate] | 101 to 1000 | 331 to 3300 | 331 to 3300
CC(C)(C)OC(=O)[C@@H](NCc1ccc(CCC(=O)NO)nc1)C1CCCCC1 [Example 63, tert-Butyl (2S)-cyclohexyl[({6-[3-(hydroxyamino)-3-oxopropyl]pyridin-3-yl}methyl)amino]acetate] | < 100 | – | –
CC(C)(C)OC(=O)[C@@H](NCc1ccc(/C=C/C(=O)NO)nc1)C1CCCCC1 [Example 59, tert-Butyl (2S)-cyclohexyl[({6-[(1E)-3-(hydroxyamino)-3-oxoprop-1-en-1-yl]pyridin-3-yl}methyl)amino]acetate] | < 100 | < 330 | < 330
O=C(/C=C/c1ccc(CN2CCC(N[C@H](C(=O)O)C3CCCCC3)CC2)cc1)NO [Example 106] | 101 to 1000 | – | –

Compound | IC50 [1] [nM] | IC50 [2] [nM] | IC50 [3] [nM]
CC(C)C[C@H](NCc1ccc(CNCc2ccc(CCC(=O)NO)cc2)cc1)C(=O)OC(C)(C)C [Example 78, tert-Butyl N-{4-[({4-[3-(hydroxyamino)-3-oxopropyl]benzyl}amino)methyl]benzyl}-L-leucinate] | 101 to 1000 | 331 to 3300 | < 330
O=C(/C=C/c1ccc(CN[C@H](C(=O)O)c2ccccc2)cc1)NO [Example 91] | 101 to 1000 | – | –
CC(C)(C)OC[C@H](NCc1ccc(/C=C/C(=O)NO)cc1)C(=O)O [Example 90] | 101 to 1000 | – | –
CC(C)C[C@H](NCc1ccc(CCC(=O)NO)cc1)C(=O)OC(C)(C)C [Example 41, tert-Butyl N-{4-[3-(hydroxyamino)-3-oxopropyl]benzyl}-L-leucinate] | 101 to 1000 | 331 to 3300 | < 330
O=C(CCc1ccc(CN[C@H](C(=O)OC2CCCC2)C2CCCCC2)cc1)NO [Example 33, Cyclopentyl (2S)-cyclohexyl({4-[3-(hydroxyamino)-3-oxopropyl]benzyl}amino)acetate] | 101 to 1000 | 331 to 3300 | < 330
CC(C)C[C@H](NCc1cccc(CCC(=O)NO)c1)C(=O)OC1CCCC1 [Example 52, Cyclopentyl N-{3-[3-(hydroxyamino)-3-oxopropyl]benzyl}-L-leucinate] | > 1000 | > 3300 | 331 to 3300
CC(C)C[C@H](NCc1ccc(CCC(=O)NO)nc1)C(=O)O [Example 110, N-({6-[3-(hydroxyamino)-3-oxopropyl]pyridin-3-yl}methyl)-L-leucine] | 101 to 1000 | – | –
O=C(CCc1ccc(CN[C@H](C(=O)O)C2CCCCC2)cc1)NO [Example 96] | 101 to 1000 | – | –
CC(C)C[C@H](NCc1ccc(/C=C/C(=O)NO)cc1)C(=O)O [Example 89] | < 100 | – | –
O=C(CCc1ccc(CN2CCNC(C(=O)O)C2)cc1)NO (stereo not drawn) [Example 114, 4-{4-[3-(Hydroxyamino)-3-oxopropyl]benzyl}piperazine-2-carboxylic acid] | > 1000 | – | –
CC(C)C[C@H](NCc1ccc(/C=C/C(=O)NO)nc1)C(=O)O [Example 102] | < 100 | – | –
O=C(/C=C/c1ccc(CN[C@H](C(=O)O)C2CCCCC2)cn1)NO [Example 101] | < 100 | – | –
CC[C@H](C)[C@H](NCc1ccc(CCC(=O)NO)cc1)C(=O)O [Example 109, N-{4-[3-(Hydroxyamino)-3-oxopropyl]benzyl}-L-isoleucine] | > 1000 | – | –
O=C(/C=C/c1cccc(CNCC2CCC(CN[C@H](C(=O)O)C3CCCCC3)CC2)c1)NO (stereo partly drawn) [Example 105] | > 1000 | – | –
CC(N[C@H](C(=O)O)C1CCCCC1)c1ccc(/C=C/C(=O)NO)cc1 (stereo partly drawn) [Example 108] | < 100 | – | –
CC(C)C[C@H](NCc1ccc(CCC(=O)NO)cc1)C(=O)O [Example 97] | < 100 | – | –
CC(C)[C@H](NCc1ccc(CCC(=O)NO)cc1)C(=O)O [Example 99] | > 1000 | – | –
O=C(/C=C/c1ccc(CN[C@@H](C(=O)O)C2CCCCC2)cc1)NO [Example 93] | 101 to 1000 | – | –
CC(C)(C)OC(=O)[C@@H](NCc1cccc(CCC(=O)NO)c1)c1ccccc1 [Example 49, tert-Butyl (2S)-({3-[3-(hydroxyamino)-3-oxopropyl]benzyl}amino)(phenyl)acetate] | – | > 3300 | > 3300
O=C(CCc1ccc(CN[C@H](C(=O)O)c2ccccc2)cc1)NO [Example 98] | > 1000 | – | –
